# How the values were obtained:
# RXF 393 = assay: Cytotoxicity against human RXF393 cells after 48 hrs by sulforhodamine B assay; type: functional; settings: RXF 393, 48 h
# SK-MEL-5 = assay: Cytotoxicity against human SK-MEL-5 cells after 48 hrs by sulforhodamine B assay; type: functional; settings: SK-MEL-5, 48 h
# DU-145 = assay: Cytotoxicity against human DU145 cells after 48 hrs by sulforhodamine B assay; type: functional; settings: DU-145, 48 h
# SF-268 = assay: Cytotoxicity against human SF268 cells after 48 hrs by sulforhodamine B assay; type: functional; settings: SF-268, 48 h
# HCT-15 = assay: Cytotoxicity against human HCT15 cells after 48 hrs by sulforhodamine B assay; type: functional; settings: HCT-15, 48 h
# BT-549 = assay: Cytotoxicity against human BT549 cells after 48 hrs by sulforhodamine B assay; type: functional; settings: BT-549, 48 h
# SF-539 = assay: Cytotoxicity against human SF539 cells after 48 hrs by sulforhodamine B assay; type: functional; settings: SF-539, 48 h
# LOX IMVI = assay: Cytotoxicity against human LOXIMVI cells after 48 hrs by sulforhodamine B assay; type: functional
# Mus musculus = assay: Toxicity in athymic nude mouse assessed as survival at 400 mg/kg, ip measured after 2 weeks; type: organism-based; set-up: dose 400 mg/kg, route intraperitoneal; settings: in vivo, 336 h
# HT-29 = assay: Cytotoxicity against human HT-29 cells after 48 hrs by sulforhodamine B assay; type: functional; settings: HT-29, 48 h
# [1] = Cytotoxicity against human EKVX cells after 48 hrs by sulforhodamine B assay; type: functional
# A498 = assay: Cytotoxicity against human A498 cells after 48 hrs by sulforhodamine B assay; type: functional; settings: A498, 48 h
# OVCAR-5 = assay: Cytotoxicity against human OVCAR5 cells after 48 hrs by sulforhodamine B assay; type: functional; settings: OVCAR-5, 48 h
# Malme-3M = assay: Cytotoxicity against human MALME-3M cells after 48 hrs by sulforhodamine B assay; type: functional
# UACC-257 = assay: Cytotoxicity against human UACC257 cells after 48 hrs by sulforhodamine B assay; type: functional; settings: UACC-257, 48 h
# SN12C = assay: Cytotoxicity against human SN12C cells after 48 hrs by sulforhodamine B assay; type: functional
# OVCAR-8 = assay: Cytotoxicity against human OVCAR8 cells after 48 hrs by sulforhodamine B assay; type: functional; settings: OVCAR-8, 48 h
# IGROV-1 = assay: Cytotoxicity against human IGROV1 cells after 48 hrs by sulforhodamine B assay; type: functional; settings: IGROV-1, 48 h
# UACC-62 = assay: Cytotoxicity against human UACC62 cells after 48 hrs by sulforhodamine B assay; type: functional; settings: UACC-62, 48 h
# SK-OV-3 = assay: Cytotoxicity against human SKOV3 cells after 48 hrs by sulforhodamine B assay; type: functional; settings: SK-OV-3, 48 h
# TK-10 = assay: Cytotoxicity against human TK10 cells after 48 hrs by sulforhodamine B assay; type: functional; settings: TK-10, 48 h
# OVCAR-3 = assay: Cytotoxicity against human OVCAR3 cells after 48 hrs by sulforhodamine B assay; type: functional; settings: OVCAR-3, 48 h
# UO-31 = assay: Cytotoxicity against human UO31 cells after 48 hrs by sulforhodamine B assay; type: functional; settings: UO-31, 48 h
# OVCAR-4 = assay: Cytotoxicity against human OVCAR4 cells after 48 hrs by sulforhodamine B assay; type: functional; settings: OVCAR-4, 48 h
# 786-0 = assay: Cytotoxicity against human 786-0 cells after 48 hrs by sulforhodamine B assay; type: functional; settings: 786-0, 48 h
# MCF7 = assay: Cytotoxicity against human MCF7 cells after 48 hrs by sulforhodamine B assay; type: functional; settings: MCF7, 48 h
# [2] = Cytotoxicity against human Hs 578T cells after 48 hrs by sulforhodamine B assay; type: functional
# SF-295 = assay: Cytotoxicity against human SF295 cells after 48 hrs by sulforhodamine B assay; type: functional; settings: SF-295, 48 h
# K562 = assay: Cytotoxicity against human K562 cells after 48 hrs by sulforhodamine B assay; type: functional; settings: K562, 48 h
# KM12 = assay: Cytotoxicity against human KM12 cells after 48 hrs by sulforhodamine B assay; type: functional; settings: KM12, 48 h
# NCI-H23 = assay: Cytotoxicity against human NCI-H23 cells after 48 hrs by sulforhodamine B assay; type: functional; settings: NCI-H23, 48 h
# CAKI-1 = assay: Cytotoxicity against human CAKI-1 cells after 48 hrs by sulforhodamine B assay; type: functional; settings: CAKI-1, 48 h
# RPMI-8226 = assay: Cytotoxicity against human RPMI8226 cells after 48 hrs by sulforhodamine B assay; type: functional; settings: RPMI-8226, 48 h
# NCI-H522 = assay: Cytotoxicity against human NCI-H522 cells after 48 hrs by sulforhodamine B assay; type: functional; settings: NCI-H522, 48 h
# A549 = assay: Cytotoxicity against human A549/ATCC cells after 48 hrs by sulforhodamine B assay; type: functional; settings: A549, 48 h
# T47D = assay: Cytotoxicity against human T47D cells after 48 hrs by sulforhodamine B assay; type: functional
# SW-620 = assay: Cytotoxicity against human SW620 cells after 48 hrs by sulforhodamine B assay; type: functional; settings: SW-620, 48 h
# CCRF-CEM = assay: Cytotoxicity against human CCRF-CEM cells after 48 hrs by sulforhodamine B assay; type: functional
# SNB-75 = assay: Cytotoxicity against human SNB75 cells after 48 hrs by sulforhodamine B assay; type: functional; settings: SNB-75, 48 h
# SR = assay: Cytotoxicity against human SR cells after 48 hrs by sulforhodamine B assay; type: functional
# PC-3 = assay: Cytotoxicity against human PC3 cells after 48 hrs by sulforhodamine B assay; type: functional; settings: PC-3, 48 h
# M14 = assay: Cytotoxicity against human M14 cells after 48 hrs by sulforhodamine B assay; type: functional; settings: M14, 48 h
# HCT-116 = assay: Cytotoxicity against human HCT116 cells after 48 hrs by sulforhodamine B assay; type: functional; settings: HCT-116, 48 h
# NCI-H460 = assay: Cytotoxicity against human NCI-H460 cells after 48 hrs by sulforhodamine B assay; type: functional; settings: NCI-H460, 48 h
# SK-MEL-28 = assay: Cytotoxicity against human SK-MEL-28 cells after 48 hrs by sulforhodamine B assay; type: functional; settings: SK-MEL-28, 48 h
# HOP-92 = assay: Cytotoxicity against human HOP92 cells after 48 hrs by sulforhodamine B assay; type: functional; settings: HOP-92, 48 h
# MDA-MB-231 = assay: Cytotoxicity against human MDA-MB-231 cells after 48 hrs by sulforhodamine B assay; type: functional; settings: MDA-MB-231, 48 h
# COLO 205 = assay: Cytotoxicity against human COLO205 cells after 48 hrs by sulforhodamine B assay; type: functional; settings: COLO 205, 48 h
# ACHN = assay: Cytotoxicity against human ACHN cells after 48 hrs by sulforhodamine B assay; type: functional
# HL-60(TB) = assay: Cytotoxicity against human HL-60(TB) cells after 48 hrs by sulforhodamine B assay; type: functional; settings: HL-60, 48 h
# MOLT-4 = assay: Cytotoxicity against human MOLT4 cells after 48 hrs by sulforhodamine B assay; type: functional; settings: MOLT-4, 48 h
# NCI-H322M = assay: Cytotoxicity against human NCI-H322M cells after 48 hrs by sulforhodamine B assay; type: functional
# SNB-19 = assay: Cytotoxicity against human SNB19 cells after 48 hrs by sulforhodamine B assay; type: functional; settings: SNB-19, 48 h
# U-251 = assay: Cytotoxicity against human U251 cells after 48 hrs by sulforhodamine B assay; type: functional; settings: U-251, 48 h
# MDA-MB-435 = assay: Cytotoxicity against human MDA-MB-435 cells after 48 hrs by sulforhodamine B assay; type: functional; settings: MDA-MB-435, 48 h
# NCI/ADR-RES = assay: Cytotoxicity against human NCI/ADR-RES cells after 48 hrs by sulforhodamine B assay; type: functional
# HCC 2998 = assay: Cytotoxicity against human HCC2998 cells after 48 hrs by sulforhodamine B assay; type: functional; settings: HCC 2998, 48 h
# HOP-62 = assay: Cytotoxicity against human HOP62 cells after 48 hrs by sulforhodamine B assay; type: functional; settings: HOP-62, 48 h
# SK-MEL-2 = assay: Cytotoxicity against human SK-MEL-2 cells after 48 hrs by sulforhodamine B assay; type: functional; settings: SK-MEL-2, 48 h
# NCI-H226 = assay: Cytotoxicity against human NCI-H226 cells after 48 hrs by sulforhodamine B assay; type: functional; settings: NCI-H226, 48 h
# MDA-MB-468 = assay: Cytotoxicity against human MDA-MB-468 cells after 48 hrs by sulforhodamine B assay; type: functional; settings: MDA-MB-468, 48 h
compound,measurement,setting,value
CCN(CC)c1ccc(/C=N/NC(=O)c2ccccc2Nc2ccnc(C(F)(F)F)c2)c(O)c1,GI50,RXF 393,251 nM
same,GI50,SK-MEL-5,158 nM
same,GI50,DU-145,126 nM
same,GI50,SF-268,69.2 nM
same,GI50,HCT-15,50.1 nM
same,GI50,BT-549,347 nM
same,GI50,SF-539,245 nM
same,GI50,LOX IMVI,79.4 nM
same,Activity,Mus musculus,Non-toxic
same,GI50,HT-29,347 nM
same,GI50,[1],158 nM
same,GI50,A498,178 nM
same,GI50,OVCAR-5,200 nM
same,GI50,Malme-3M,339 nM
same,GI50,UACC-257,324 nM
same,GI50,SN12C,240 nM
same,GI50,OVCAR-8,209 nM
same,GI50,IGROV-1,79.4 nM
same,GI50,UACC-62,214 nM
same,GI50,SK-OV-3,174 nM
same,GI50,TK-10,166 nM
same,GI50,OVCAR-3,126 nM
same,GI50,UO-31,141 nM
same,GI50,OVCAR-4,87.1 nM
same,GI50,786-0,182 nM
same,GI50,MCF7,288 nM
same,GI50,[2],871 nM
same,GI50,SF-295,251 nM
same,GI50,K562,380 nM
same,GI50,KM12,251 nM
same,GI50,NCI-H23,513 nM
same,GI50,CAKI-1,63.1 nM
same,GI50,RPMI-8226,41.7 nM
same,GI50,NCI-H522,263 nM
same,GI50,A549,309 nM
same,GI50,T47D,550 nM
same,GI50,SW-620,363 nM
same,GI50,CCRF-CEM,31.6 nM
same,GI50,SNB-75,209 nM
same,GI50,SR,138 nM
same,GI50,PC-3,263 nM
same,GI50,M14,129 nM
same,GI50,HCT-116,100 nM
same,GI50,NCI-H460,67.6 nM
same,GI50,SK-MEL-28,240 nM
same,GI50,HOP-92,251 nM
same,GI50,MDA-MB-231,195 nM
same,GI50,COLO 205,174 nM
same,GI50,ACHN,79.4 nM
same,GI50,HL-60(TB),251 nM
same,GI50,MOLT-4,79.4 nM
same,GI50,NCI-H322M,100 nM
same,GI50,SNB-19,479 nM
same,GI50,U-251,126 nM
same,GI50,MDA-MB-435,457 nM
same,GI50,NCI/ADR-RES,263 nM
same,GI50,HCC 2998,191 nM
same,GI50,HOP-62,105 nM
same,GI50,SK-MEL-2,501 nM
same,GI50,NCI-H226,151 nM
same,GI50,MDA-MB-468,151 nM
